The source of these data is patent publication US11578055B2, “Triazacyclododecansulfonamide (“TCD”)-based protein secretion inhibitors” (KEZAR LIFE SCIENCES, priority 2018, dated 2023).

Molecules are shown by their SMILES.

In data set [1] the test system is PD1 signal sequence plus 10 amino acids fused to Gaussia Luciferase (PD1-ss+10aa/Gaussia Luciferase). The data set can be described thus: Dox Induced PD1-ss-Gluc Assay. The format is cell-based. The note with it: 24 hr, 293FRT/TO; read-out: 24 hr Dox Inducible PD1ssGluc 293FRT/TO: Mean IC50. An excerpt:
FIp-In 293 T-REx™ cells were transfected with pcDNA™5/FRT/TO plasmid inserted with cDNA encoding Gaussia Luciferase fused to the 3′ end of cDNA encoding PD1 signal sequence plus 10 amino acids (N-[…]-C) (SEQ ID NO: 1). Transfected cells were selected for resistance to the selectable markers Hygromycin and Blasticidin to create a stable cell line that contained the PD1-ss+10aa/Gaussia Luciferase cDNA insert whose expression was regulated under the T-REx™ system. The day before assay, cells were trypsinized and plated in 384-well tissue culture plates. The next day, compound dilutions in DMSO/media containing doxycycline were added to the wells and incubated at 37° C., 5% CO2.
(§1) For chemical structures that include one or more stereoisomers, but are illustrated without indicating stereochemistry, the assay data refers to a mixture of stereoisomers.

For data set [2], the system named is full length TNFα (amino acids 1-233) fused to Gaussia Luciferase. Nature of the data set: Dox Induced TNFα-FL-Gluc Assay. The format is cell-based. The settings on record: 24 hr, 293FRT/TO; read-out: 24 hr Dox Inducible TNFaFLGluc 293FRT/TO: Mean IC50.
Source text: FIp-In 293 T-REx™ cells were transfected with pcDNA™5/FRT/TO plasmid inserted with cDNA encoding Gaussia Luciferase fused to the 3′ end of cDNA encoding full length TNFα (amino acids 1-233). Transfected cells were selected for resistance to the selectable markers Hygromycin and Blasticidin to create a stable cell line that contained the TNFα-FL/Gaussia Luciferase cDNA insert whose expression was regulated under the T-REx™ system. The day before assay, cells were trypsinized and plated in 384-well tissue culture plates. The next day, compound dilutions in DMSO/media containing doxycycline were added to the wells and incubated at 37° C., 5% CO2.
as §1

In data set [3] the test system is multiple myeloma cell line NCl-H929. The data set can be described thus: H929 Cell Viability Assay. Type of data set: cell-based, human. The note with it: Homo sapiens, NCI-H929, 48 h, H929, read-out: 48 hr H929 Viability Celltiter-Glo: Mean EC50. How it is done: The human multiple myeloma cell line NCl-H929 was cultured in Advanced RPMI 1640 media (Gibco®) supplemented with 6% fetal bovine serum, 2 mM Glutamine, and 1× Penicillin/Streptomycin. On the day of assay, cells were resuspended in RPMI 1640 media supplemented with 10% fetal bovine serum, 2 mM Glutamine, and 1× Penicillin/Streptmycin and plated in 384-well tissue culture plates and treated with compound dilutions in DMSO/media. Plates were incubated at 37° C., 5% CO2 for 48 hours. After 48 hours, Celltiter-Glo® (Promega) was added to each well and luciferase signal was quantified using Tecan Infinite M1000 Pro for cell viability determination.
as §1

Data set [4] relates to multiple myeloma cell line U266B1. Nature of the data set: U266 Cell Viability Assay. The format is cell-based, human. The note with it: Homo sapiens, U-266; 48 hr, U266; read-out: 48 hr U266 Viability Celltiter-Glo: Mean EC50. How it is done:
The human multiple myeloma cell line U266B1 was cultured in RPMI 1640 media supplemented with 10% fetal bovine serum, 2 mM Glutamine, and 1× Penicillin/Streptomycin. Cells were plated in 384-well tissue culture plates and treated with compound dilutions in DMSO/media. Plates were incubated at 37° C., 5% CO2 for 48 hours. After 48 hours, Celltiter-Glo® (Promega) was added to each well and luciferase signal was quantified using Tecan Infinite M1000 Pro for cell viability determination.
For chemical structures that include one or more stereoisomers, but are illustrated without indicating stereochemistry, the assay data refers to a mixture of stereoisomers

The nature of data set [5]: In Vitro Microsome Stability Assay (human). Type of data set: in vitro ADME. The note with it: human, 30 min, NADPH. As to the method:
(§2) Potassium phosphate (423 μL of a 0.1 M solution) was added to 8-strip deep well tubes followed by human, mouse, rat, or monkey microsomes (25 μL of a 20 mg/mL solution). The tubes were then placed on ice and the test article (2 μL of a 0.25 mM solution in DMSO) was added. The mixture was preincubated at 37° C. for 3 to 5 minutes (shaking at 150 rpm) then the reaction was initiated by adding 50 μL NADPH. An aliquot of samples (100 μL) were collected at 0 and 30 min and 200 μL of an acetonitrile mixture containing IS (compound 914) was added to quench the reaction. After centrifuging for 10 min at 4000 rpm, a mixed solution of the 20 μL of the supernatant (20 μL) plus 100 μL ACN/H2O (1:1) were injected for LC-MS/MS analysis. Liver microsome stability is assessed by the % remaining of compound at 30 min which is calculated using the following equation: [(AUCanalyteT=30/AUCIS)/(AUCanalyteT=0/AUCIS)]*100
as §1

The nature of data set [6]: In Vitro Microsome Stability Assay (mouse). The format is in vitro ADME. The note with it: mouse, 30 min, NADPH. As to the method: as §2, §1
A short description of data set [7]: In Vitro Microsome Stability Assay (rat). The format is in vitro ADME. The settings on record: rat, 30 min, NADPH. As to the method: as §2, §1
Data set [8] can be described thus: In Vitro Microsome Stability Assay (monkey). The format is in vitro ADME. The note with it: monkey, 30 min, NADPH. How it is done: as §2, §1

With `COc1ccccc1S(=O)(=O)N1CCCN(CC2CCCCC2)CCCN(S(=O)(=O)N2CCCCC2)CC2(CC2)C1` [A33, 9-(cyclohexylmethyl)-5-(2-methoxybenzenesulfonyl)-13-(piperidine-1-sulfonyl)-5,9,13-triazaspiro[2.11]tetradecane], the IC50 in data set [1] and in data set [2] was above 25 µM in each case. Also, the EC50 in data set [3] and in data set [4] was above 25 µM throughout. In addition, the “Liver Microsome Stability-% Left after 30 min w/ NADPH (%) Human” value (shortened to “Liver Microsome Stability-% Left … (%) Human”) in data set [5] was found to be 0.05%. Moreover, the “Liver Microsome Stability-% Left after 30 min w/ NADPH (%) Mouse” value (“Liver Microsome Stability-% Left … (%) Mouse” below) in data set [6] is 0.08%. Also, the “Liver Microsome Stability-% Left after 30 min w/ NADPH (%) Rat” value (from here on “Liver Microsome Stability-% Left … (%) Rat”) in data set [7] came out at 0.13%. Besides, the “Liver Microsome Stability-% Left after 30 min w/ NADPH (%) Monkey” value (“Liver Microsome Stability-% Left … (%) Monkey” for short) in data set [8] is given as 0.07%.
Turning to `C=C1CN(S(=O)(=O)c2ccc(C)cc2)CCCN(CC2CCCCC2)CCCN(S(=O)(=O)C(C)C)C1` [A7, 9-(cyclohexylmethyl)-1-(4-methylbenzenesulfonyl)-3-methylidene-5-(propane-2-sulfonyl)-1,5,9-triazacyclododecane], the IC50 in data set [1] was 2.31 µM; in data set [2], above 25 µM. In addition, the figures for the EC50 in data set [3] and in data set [4] were 22.4 µM and above 25 µM, respectively. The “Liver Microsome Stability-% Left … (%) Human” value in data set [5] is 0.29%. In addition, the “Liver Microsome Stability-% Left … (%) Mouse” value in data set [6] is listed as 0.17%. Further, the “Liver Microsome Stability-% Left … (%) Rat” value in data set [7] stood at 0.23%. Besides, the “Liver Microsome Stability-% Left … (%) Monkey” value in data set [8] is on record as 0.99%.
Turning to `C=C1CN(S(=O)(=O)c2ccc(N(C)C)cc2)CCCN(CC2CCCCC2)CCCN(S(=O)(=O)N2CCC(n3cccn3)CC2)C1` [A79, 4-{[9-(cyclohexylmethyl)-3-methylidene-5-{[4-(1H-pyrazol-1-yl)piperidin-1-yl]sulfonyl}-1,5,9-triazacyclododecan-1-yl]sulfonyl}-N,N-dimethylaniline], the results for the IC50 in data set [1] and in data set [2] were 0.408 µM and above 25 µM, respectively. The EC50 in data set [3] and in data set [4] was above 25 µM in each case. Besides, in data set [5], the “Liver Microsome Stability-% Left … (%) Human” value stood at 0.16%. Besides, the “Liver Microsome Stability-% Left … (%) Mouse” value in data set [6] came to 10.6%. Further, the “Liver Microsome Stability-% Left … (%) Rat” value in data set [7] amounted to 0.1%. Moreover, in data set [8], the “Liver Microsome Stability-% Left … (%) Monkey” value is 0.06%.
Regarding `Cc1cc(N(C)C)ccc1S(=O)(=O)N1CCCN(CC2CCCCC2)CCCN(S(=O)(=O)N2CCCCC2)CC2(CC2)C1` [A30, 4-{[9-(cyclohexylmethyl)-13-(piperidine-1-sulfonyl)-5,9,13-triazaspiro[2.11]tetradecan-5-yl]sulfonyl}-N,N,3-trimethylaniline], the IC50 in data set [1] was 0.793 µM; in data set [2] it was above 25 µM. Moreover, the EC50 in data set [3] and in data set [4] was above 25 µM each time. In data set [5], the “Liver Microsome Stability-% Left … (%) Human” value worked out at 0.12%. For the same compound, the “Liver Microsome Stability-% Left … (%) Mouse” value in data set [6] turned out to be 0.35%. In addition, the “Liver Microsome Stability-% Left … (%) Rat” value in data set [7] is 0.28%. Also, in data set [8], the “Liver Microsome Stability-% Left … (%) Monkey” value is 0.03%.
Consider `C=C1CN(S(=O)(=O)c2ccc(N(C)C)cc2)CCCN(CC2CCCCC2)CCCN(S(=O)(=O)N2CC=C(c3cccc(Cl)c3)CC2)C1` [A69, 4-[(5-{[4-(3-chlorophenyl)-1,2,3,6-tetrahydropyridin-1-yl]sulfonyl}-9-(cyclohexylmethyl)-3-methylidene-1,5,9-triazacyclododecan-1-yl)sulfonyl]-N,N-dimethylaniline], for which the IC50 in data set [1] was 0.136 µM; in data set [2], above 25 µM. Further, the EC50 in data set [3] and in data set [4] was above 25 µM each time. For the same compound, in data set [5], the “Liver Microsome Stability-% Left … (%) Human” value is given as 63%. In addition, in data set [6], the “Liver Microsome Stability-% Left … (%) Mouse” value is recorded as 64.6%. Moreover, the “Liver Microsome Stability-% Left … (%) Rat” value in data set [7] came out at 74.3%. The “Liver Microsome Stability-% Left … (%) Monkey” value in data set [8] was 58.2%.
For the compound `C=C1CN(S(=O)(=O)c2ccc(N(C)C)cc2)CCCN(CC2CCCCC2)CCCN(S(=O)(=O)N2CCN(c3ccccc3)[C@@H](C)C2)C1` [A47, 4-{[9-(cyclohexylmethyl)-5-{[(3S)-3-methyl-4-phenylpiperazin-1-yl]sulfonyl}-3-methylidene-1,5,9-triazacyclododecan-1-yl]sulfonyl}-N,N-dimethylaniline], the IC50 is 0.259 µM in data set [1] and above 25 µM in data set [2]. The EC50 in data set [3] and in data set [4] was above 25 µM in each case. In addition, the “Liver Microsome Stability-% Left … (%) Human” value in data set [5] worked out at 12.6%. Moreover, in data set [6], the “Liver Microsome Stability-% Left … (%) Mouse” value came out at 5.68%. Further, the “Liver Microsome Stability-% Left … (%) Rat” value in data set [7] worked out at 10.7%. For the same compound, the “Liver Microsome Stability-% Left … (%) Monkey” value in data set [8] was determined as 1.68%.
`CN(C)c1ccc(S(=O)(=O)N2CCCN(CC3CCCCC3)CCCN(S(=O)(=O)N3CCCC3)CC3(CC3)C2)cc1` [A23, 4-{[9-(cyclohexylmethyl)-13-(pyrrolidine-1-sulfonyl)-5,9,13-triazaspiro[2.11]tetradecan-5-yl]sulfonyl}-N,N-dimethylaniline]: the IC50 in data set [1] is 0.759 µM; in data set [2], above 25 µM. Moreover, the EC50 in data set [3] and in data set [4] was above 25 µM throughout. Also, the “Liver Microsome Stability-% Left … (%) Human” value in data set [5] is 0.04%. Moreover, in data set [6], the “Liver Microsome Stability-% Left … (%) Mouse” value was determined as 0.17%. Also, the “Liver Microsome Stability-% Left … (%) Rat” value in data set [7] was found to be 0.13%. The “Liver Microsome Stability-% Left … (%) Monkey” value in data set [8] turned out to be 0.03%.
For `C=C1CN(S(=O)(=O)c2ccc(N(C)C)cc2)CCCN(CC2CCCCC2)CCCN(S(=O)(=O)N2CCC(c3cccc(Cl)c3)CC2)C1` [A58, 4-[(5-{[4-(3-chlorophenyl)piperidin-1-yl]sulfonyl}-9-(cyclohexylmethyl)-3-methylidene-1,5,9-triazacyclododecan-1-yl)sulfonyl]-N,N-dimethylaniline], the IC50 stood at 0.0721 µM in data set [1] and 8.5 µM in data set [2]. Further, the EC50 in data set [3] and in data set [4] was above 25 µM throughout. For the same compound, the “Liver Microsome Stability-% Left … (%) Human” value in data set [5] was determined as 31.6%. In addition, the “Liver Microsome Stability-% Left … (%) Mouse” value in data set [6] is recorded as 72.8%. In data set [7], the “Liver Microsome Stability-% Left … (%) Rat” value came to 66.7%. The “Liver Microsome Stability-% Left … (%) Monkey” value in data set [8] worked out at 53.1%.
Turning to `C=C1CN(S(=O)(=O)c2ccc(N(C)C)cc2)CCCN(CC2CCCCC2)CCCN(S(=O)(=O)N2CCCCC2)C1` [A13, 4-{[9-(cyclohexylmethyl)-3-methylidene-5-(piperidine-1-sulfonyl)-1,5,9-triazacyclododecan-1-yl]sulfonyl}-N,N-dimethylaniline], the IC50 in data set [1] was determined as 0.025 µM; in data set [2], 1.47 µM. The EC50 in data set [3] was 0.987 µM; in data set [4], above 25 µM. Besides, in data set [5], the “Liver Microsome Stability-% Left … (%) Human” value was determined as 0.65%. Besides, in data set [6], the “Liver Microsome Stability-% Left … (%) Mouse” value came to 0.04%. Also, in data set [7], the “Liver Microsome Stability-% Left … (%) Rat” value is recorded as 0.1%. Also, the “Liver Microsome Stability-% Left … (%) Monkey” value in data set [8] worked out at 0.1%.
